Measured values from US9783803B2, “Inhibition of NEAT1 for treatment of solid tumors” (VIB VZW, priority 2014, dated 2017).
Entries after “also recorded” stand apart in the source; their conditions may differ.

Experiments:
[1] = system: NEAT1; test: NEAT1 induction under low/chronic or high stress conditions; assay type: cell-based, human
Text: FIGS. 4A-4F. NEAT1 is induced in human and mouse cells exposed to low stress conditions including exposure to the inducer of senescence aurora-kinase inhibitor AZD1152-HQPA (AZD; FIG. 4A), low doses of Rotenone (Rot; FIG. 4B) that promotes oxidative stress, low doses of doxorubicin (Doxo, FIG. 4C) and replicative stress-induced damage (RS; FIG. 4D).
It has been shown that p53 is induced in MEFs during passages as a response to increasing oxidative stress levels generated by culturing of the cells in normoxic conditions. […] This is in line with chronic stress caused by UV radiation.
The same is true for cells that are exposed to high doses of irradiation (FIG. 4F).

[2] = system: MCF-7 cells; test: Paraspeckles formation by NEAT1 RNA-FISH in Nutlin3a-treated MCF-7 cells; assay type: cell-based, human; details: for Nutlin-induced paraspeckles formation: MCF-7 following Nutlin exposure, gapmer transfection
Procedure: FIGS. 3A and 3B. […] FIG. 3A: MCF-7 cells were exposed to Nutlin3a (for 24 hours) and paraspeckles formation (red dots) was assessed by FISH-analysis with a NEAT1-specific probe set. Nuclei were counter-stained with DAPI (Blue). FIG. 3B: Quantification of paraspeckles formation in MCF-7 cells exposed to Nutlin3a before (mock) and after transfection of the cells with a control/scramble gapmer (scr) or gapmers targeting the NEAT1 transcripts (gap4 and gap6).
(§1) To differentiate between the different isoforms of NEAT, the following strategy was used. All qPCRs labeled NEAT1 or NEAT1_1 were done with primers targeting the region of +/−2200 bp. The knock-down probes labeled as such also target the region between 2000 and 3756 bp. The RNA-FISH probeset used is made up of a large set of oligos targeting region 1-3756 bp. The primers and knock-down probes labeled NEAT1_2 (the long transcript) target a region of +/−21300 bp. The RNA-FISH probes (again a set of oligos) target the portion from 3800-11700 bp to avoid detection of shorter isoforms.
A similar observation in MCF-7 cells treated with p53 shRNA confirms again that this induction is p53-dependent (data not shown). Thus, p53 stimulates the formation of paraspeckles in these cells.

[3] = system: NEAT1; test: NEAT1 induction by Nutlin3a (RNA-seq, qPCR) in human cell lines; assay type: cell-based
Procedure: (§2) FIG. 1 provides evidence that NEAT1 is a direct p53 target gene in the breast cancer cell line MCF-7. RNA-seq and p53 ChIPseq experiments have been carried out in MCF-7 cells following exposure to the MDM2 antagonist Nutlin3a for 24 hours.
(§3) This upregulation is mediated through the recruitment of p53 to the NEAT1 promoter as illustrated by the increase intensity of the p53-ChIP-seq peaks (green in FIG. 1).
Both isoforms are affected, with the effect being stronger for the longer isoform (NEAT1_2).
as §1

[4] = system: NEAT1 promoter; test: p53 ChIP-seq in MCF-7 cells; assay type: cell-based, human; details: 24 hours
Procedure: as §2, §3

[5] = system: NEAT1; test: NEAT1 induction by Nutlin in mouse embryonic fibroblasts; assay type: cell-based; details: early passage (P3) MEFs
Text: FIGS. 7A-7F. NEAT1 is required for primary cells immortalization. NEAT1 expression in induced in mouse embryonic fibroblasts (MEFs) upon Nutlin3a exposure (FIG. 7A) and replicative passaging on a 3T3 protocol (FIG. 7B).

[6] = system: NEAT1; test: NEAT1 knock-down by LNA-gapmers (relative RNA levels, qPCR); assay type: cell-based, human; details: for NEAT1 expression (knock-down): gapmer transfection, cancer cell lines; for NEAT1 isoforms inhibited: long (NEAT1_2) versus short isoform
Text: (§4) FIGS. 8A-8D. NEAT1 KD reduces the cell viability of human cancer cell lines. Gapmers 4 and 5 (gap 4 and 5) were used to knock-down the expression of all NEAT1 isoforms, and Gapmer 6 (gap 6) to specifically KD expression of the long isoform, in a series of cancer cell lines.
FIGS. 9A-9C. Knock-down of NEAT1 impairs HR and NHEJ DNA repair (FIG. 9A) but not Alt-NHEJ or SSA (FIG. 9B). […] SCR: scrambled control. Blue bars, all NEAT1 isoforms. Green bars, long NEAT1 isoform.
as §1
(§5) To further extend the anti-oncogenic effects observed in NEAT1 KO mice, NEAT1 was inhibited in different cancer cells using LNA-gapmers.
To confirm the hypothesis that NEAT1 inhibition interferes with DNA repair, U2OS cells were exposed to different concentrations of the DNA-damaging agent bleomycin. In NEAT1-inhibited cells, DNA damage (as measured by γH2AX intensity) is indeed increased (FIG. 9C, last three panels). Thus, DNA repair is severely impaired in NEAT1 KD cells.

[7] = system: BJ; test: Paraspeckles formation in immortalized human diploid fibroblast cell line BJ; assay type: cell-based; details: BJ cells, LNA-gapmer transfection
[8] = system: cancer cell lines; test: Paraspeckles formation in cancer cell lines after gapmer transfection; assay type: cell-based, human
Text: as §4, §5

[9] = system: cancer cell lines; test: Apoptosis, caspase 3/7 glow assay and FACS analysis; assay type: cell-based, human; details: gapmer transfection
Text: as §4, §5

[10] = system: MCF-7; test: WST1-assay of cell growth / metabolic activity; assay type: cell-based, human; details: gapmer transfection
Text: as §4, §5

For `CCN(CCO)CCCOc1ccc2c(Nc3cc(CC(=O)Nc4cccc(F)c4)[nH]n3)ncnc2c1` [AZD, AZD1152-HQPA], the NEAT1 induction ([1]; melanoma cells Mel 501 undergoing senescence) was “induced”.
With `COc1cccc2c1C(=O)c1c(O)c3c(c(O)c1C2=O)C[C@@](O)(C(=O)CO)C[C@@H]3O[C@H]1C[C@H](N)[C@H](O)[C@H](C)O1` [Doxorubicin] the NEAT1 induction ([1]; higher dose (5 μM)) was “not significantly” and the NEAT1 induction ([1]; low dose) was “induced”.
`COc1ccc(C2=N[C@@H](c3ccc(Cl)cc3)[C@@H](c3ccc(Cl)cc3)N2C(=O)N2CCNC(=O)C2)c(OC(C)C)c1` [Nutlin3a] was tested, and the paraspeckles formation ([2]; MCF-7 cells, Nutlin alone) was “induces paraspeckles formation”, the “transcription of NEAT1 (RNA-seq)” value ([3]; MCF-7 cells, 24 hours) was “induces transcription of NEAT1” and the “expression of NEAT1” value ([3]; U2OS, A459, human ES cells, BJ) was “induces expression of NEAT1”. For the same molecule, the NEAT1 induction ([3]; colorectal cancer cell line HCT116) was “NEAT1 induction in response to Nutlin can be seen”, the NEAT1 induction ([3]; isogenic p53 KO HCT116 cell line) was “not in an isogenic p53 KO HCT116 cell line” and the “recruitment of p53 to the NEAT1 promoter (p53-ChIP peaks)” value [4] was “p53 is directly recruited to the NEAT1 promoter”. The “expression of NEAT1” value [5] was “induces expression of NEAT1”.
For `C=C(C)[C@H]1Cc2c(ccc3c2O[C@@H]2COc4cc(OC)c(OC)cc4[C@@H]2C3=O)O1` [rotenone], the NEAT1 induction ([1]; BJ cells, oxidative stress) was “induced”.
With “NEAT1-Gapmer4: LNA-gapmer, SEQ ID NO: 2, GACGTAACAGAATT; inhibits both long and short isoform of NEAT1 (LNA gapmer, LNA positions and linkages not given here)” the “NEAT1 expression (knock-down)” value ([6]; listed as gap 4) was “efficiently knockdown NEAT1; also recorded: robust decrease in NEAT1 expression”, the NEAT1 isoforms inhibited [6] was “inhibit both the long and short isoform of NEAT1” and the Nutlin-induced paraspeckles formation [2] was “dramatically attenuated”. The formation of paraspeckles [7] was “decrease the formation of paraspeckles”, the paraspeckles formation [8] was “robust decrease” and the “apoptosis (caspase 3/7 glow assay, FACS analysis)” value [9] was “induction of apoptosis”. For the same molecule, the “MCF-7 growth (WST1-assay)” value [10] was “decrease MCF-7 growth significantly”.
In the case of “NEAT1-Gapmer5: LNA-gapmer, SEQ ID NO: 3, TAAGCACTTTGGAAAG; inhibits both long and short isoform of NEAT1 (LNA gapmer, LNA positions and linkages not given here)”, the “NEAT1 expression (knock-down)” value ([6]; listed as gap 5) is reported as “efficiently knockdown NEAT1; also recorded: robust decrease in NEAT1 expression”, the NEAT1 isoforms inhibited [6] is reported as “inhibit both the long and short isoform of NEAT1” and the paraspeckles formation [8] is reported as “robust decrease”. The “apoptosis (caspase 3/7 glow assay, FACS analysis)” value [9] was “induction of apoptosis” and the “MCF-7 growth (WST1-assay)” value [10] was “decrease MCF-7 growth significantly”.
For “NEAT1-Gapmer6: LNA-gapmer, SEQ ID NO: 4, CTCACACGTCCATCT; specific for the long isoform of NEAT1 (LNA gapmer, LNA positions and linkages not given here)”, the “NEAT1 expression (knock-down)” value [6] was “efficiently knockdown NEAT1”, the NEAT1 isoforms inhibited [6] was “specific for the long isoform” and the KD efficiency ([6]; long transcript NEAT1_2, U2OS cells) was “about 50%”. The Nutlin-induced paraspeckles formation [2] was “dramatically attenuated”, the formation of paraspeckles [7] was “decrease the formation of paraspeckles” and the “MCF-7 growth (WST1-assay)” value [10] was “decrease MCF-7 growth significantly”.
